Assay results: patent publication US20250230193A1, “CYCLIC COMPOUND HAVING SELECTIVE KRAS INHIBITORY EFFECT ON HRAS AND NRAS” (CHUGAI SEIYAKU KABUSHIKI KAISHA, priority 2022, published 2025)
Where a SMILES comes first, the peptide text is derived from it. Bridges are numbered along the chain shown (N, C = ends). [ ]: non-standard residue; d: D form. hPhe(3-Cl-4-CF3) = N[C@@H](CCc1ccc(C(F)(F)F)c(Cl)c1)C(=O)O; NPrPhe(4-CF3) = CCCN[C@@H](Cc1ccc(C(F)(F)F)cc1)C(=O)O; NMeGly(cPent) = CN[C@H](C(=O)O)C1CCCC1; NMeL = CN[C@@H](CC(C)C)C(=O)O; Ac4c = NC1(C(=O)O)CCC1; Sar = CNCC(=O)O

Key:
[1] = target: GDP-bound NRAS wild-type protein (Homo sapiens, UniProt P01111); assay: Binding to NRAS by surface plasmon resonance (SPR), Single Cycle Kinetics; conditions: for NRAS/KRAS (ratio of KD value with respect to NRAS to KD value with respect to KRAS): GDP-bound NRAS wild-type vs GDP-bound KRAS wild-type
GDP-bound NRAS wild-type protein, sequence (P01111 whole entry): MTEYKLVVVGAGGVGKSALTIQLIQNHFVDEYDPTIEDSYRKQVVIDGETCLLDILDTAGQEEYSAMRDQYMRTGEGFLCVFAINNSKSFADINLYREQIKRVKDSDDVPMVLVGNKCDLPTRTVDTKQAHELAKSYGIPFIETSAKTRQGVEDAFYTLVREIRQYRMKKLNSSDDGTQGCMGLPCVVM

[2] = target: GDP-bound HRAS wild-type protein (Homo sapiens, UniProt P01112); assay: Binding to HRAS by surface plasmon resonance (SPR), Single Cycle Kinetics; conditions: for HRAS/KRAS (ratio of KD value with respect to HRAS to KD value with respect to KRAS): GDP-bound HRAS wild-type vs GDP-bound KRAS wild-type
GDP-bound HRAS wild-type protein, sequence (P01112 whole entry): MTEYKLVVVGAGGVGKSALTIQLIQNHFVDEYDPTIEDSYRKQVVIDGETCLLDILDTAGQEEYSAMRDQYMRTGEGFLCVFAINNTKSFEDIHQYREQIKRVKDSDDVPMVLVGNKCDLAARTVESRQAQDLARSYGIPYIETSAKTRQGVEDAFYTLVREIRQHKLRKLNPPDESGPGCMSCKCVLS

For `CCCN1C(=O)CN(C)C(=O)CNC(=O)[C@H]([C@@H](C)CC)NC(=O)[C@H](CC(C)C)N(C)C(=O)C[C@@H](C(=O)N(C)C)NC(=O)[C@H](C2CCCC2)N(C)C(=O)C2(CCC2)NC(=O)[C@@H]2CCCN2C(=O)[C@H](CCc2ccc(C(F)(F)F)c(Cl)c2)NC(=O)CN(C)C(=O)[C@@H]1Cc1ccc(C(F)(F)F)cc1` [PP0362] ([NMeL]IG[Sar][NPrPhe(4-CF3)][Sar][hPhe(3-Cl-4-CF3)]P[Ac4c][NMeGly(cPent)]D-NMe2; lactam N-11), which “NRAS/KRAS (ratio of KD for GDP-bound NRAS wild-type to KD for KRAS)” value ([1]; KD ratio NRAS/KRAS, SPR) is on record?
The value was “B (a compound having 3 or more and less than 10 is denoted as B)”.

And the “HRAS/KRAS (ratio of KD for GDP-bound HRAS wild-type to KD for KRAS)” value ([2]; KD ratio HRAS/KRAS, SPR)?
The value was “B (a compound having 3 or more and less than 10 is denoted as B)”.

What does the source list for `CC[C@H](C)[C@@H]1NC(=O)[C@H](COC)N(C)C(=O)C[C@@H](C(=O)N(C)C)N(C)C(=O)[C@H](C2CCCC2)N(C)C(=O)C2(CC(C)(C)C2)NC(=O)[C@@H]2C[C@H](C)CN2C(=O)[C@H](CCc2ccc(C(F)(F)F)c(OC)c2)NC(=O)CN(C)C(=O)[C@H](Cc2ccc(C)cc2)N2CC/C=C\C[C@@H](C2=O)N(C)C(=O)CN(C)C1=O` [PP2385]?
NRAS/KRAS (ratio of KD value with respect to NRAS to KD value with respect to KRAS) ([1]; SPR): A (a compound having 10 or more and less than 20 is denoted as A); HRAS/KRAS (ratio of KD value with respect to HRAS to KD value with respect to KRAS) ([2]; SPR): B (a compound having 3 or more and less than 10 is denoted as B)

What does the source list for `CC[C@H](C)[C@@H]1NC(=O)[C@H](CC(C)C)N(C)C(=O)C[C@@H](C(=O)N2CCOCC2)N(C)C(=O)[C@H](C2CCCC2)N(C)C(=O)C2(CCCC2)NC(=O)[C@@H]2CCCN2C(=O)[C@H](CCc2ccc(C(F)(F)F)c(Cl)c2)NC(=O)CN(C)C(=O)[C@H](Cc2ccc(C(F)(F)F)cc2)N2CCCCC[C@@H](C2=O)N(C)C(=O)CN(C)C1=O` (stereo in doubt) [PP0319]?
NRAS/KRAS (ratio of KD for GDP-bound NRAS wild-type to KD for KRAS) ([1]; KD ratio NRAS/KRAS, SPR): B (a compound having 3 or more and less than 10 is denoted as B); HRAS/KRAS (ratio of KD for GDP-bound HRAS wild-type to KD for KRAS) ([2]; KD ratio HRAS/KRAS, SPR): B (a compound having 3 or more and less than 10 is denoted as B)

What does the source list for `CC[C@H](C)[C@@H]1NC(=O)[C@H](CC2CC2)N(C)C(=O)C[C@@H](C(=O)N(C)C)N(C)C(=O)[C@H](C2CCCC2)N(C)C(=O)C2(CCC2)NC(=O)[C@@H]2[C@@H](OCC(F)F)CCN2C(=O)[C@H](CCc2cc(F)c(C(F)(F)F)c(F)c2)NC(=O)CN(C)C(=O)[C@H](Cc2ccc(C(F)(F)F)cc2)N2CC/C=C\C[C@@H](C2=O)N(C)C(=O)CN(C)C1=O` [PP1533]?
NRAS/KRAS (ratio of KD value for GDP-bound NRAS wild-type protein to KD value for KRAS) ([1]; SPR, KD ratio class): AA (a compound having 20 or more is denoted as AA); HRAS/KRAS (ratio of KD value for GDP-bound HRAS wild-type protein to KD value for KRAS) ([2]; SPR, KD ratio class): A (a compound having 10 or more and less than 20 is denoted as A)

What does the source list for `CC[C@H](C)[C@@H]1NC(=O)[C@H](CC(C)C)N(C)C(=O)C[C@@H](C(=O)N2CCOCC2)N(C)C(=O)[C@H](C2CCCC2)N(C)C(=O)C2(CCC2)NC(=O)[C@@H]2C[C@@H](OCC(C)C)CN2C(=O)[C@H](CCc2cc(F)c(C(F)(F)F)c(F)c2)NC(=O)CN(C)C(=O)[C@H](Cc2ccc(C(F)(F)F)cc2)N2CCCC[C@@H](C2=O)N(C)C(=O)CN(C)C1=O` [PP1160]?
NRAS/KRAS (ratio of KD value with respect to NRAS to KD value with respect to KRAS) ([1]; KD ratio, SPR): B (a compound having 3 or more and less than 10 is denoted as B); HRAS/KRAS (ratio of KD value with respect to HRAS to KD value with respect to KRAS) ([2]; KD ratio, SPR): B (a compound having 3 or more and less than 10 is denoted as B)

How did the “NRAS/KRAS (ratio of KD value with respect to GDP-bound NRAS wild-type protein to KD value with respect to KRAS)” value ([1]; KD ratio NRAS/KRAS, class symbols) turn out when `CC[C@H](C)[C@@H]1NC(=O)[C@@H]2CCC/C=C/c3ccc(cc3)C[C@@H](C(=O)N(C)CC(=O)N[C@@H](CCc3ccc(Cl)c(Cl)c3)C(=O)N3CCC[C@H]3C(=O)NC3(CC(C)(C)C3)C(=O)N(C)[C@@H](C3CCCC3)C(=O)N(C)[C@H](C(=O)N(C)CC)CC(=O)N2C)N2CC/C=C\C[C@@H](C2=O)N(C)C(=O)CN(C)C1=O` [PP2601] was run?
Its value is “A (a compound having 10 or more and less than 20 is denoted as A)”.

What about the “HRAS/KRAS (ratio of KD value with respect to GDP-bound HRAS wild-type protein to KD value with respect to KRAS)” value ([2]; KD ratio HRAS/KRAS, class symbols) of the same compound?
The value was “A (a compound having 10 or more and less than 20 is denoted as A)”.
